From patent publication US20180273528A1 (LES LABORATOIRES SERVIER, priority 2015, published 2018)

Experiments:
DYRK1A [1] = biological target: T1, DYRK1A (Homo sapiens, UniProt Q13627); experiment: Kinase TR-FRET assay, DYRK1A; format: biochemical; parameters: full-length, wild-type human DYRK1A (NM_001396) with an HA tag; expressed in transfected cells; host or cells: human U2-OS osteosarcoma cells, transient transfection of a pcDNA3.1 plasmid; settings: full-length human kinase, 10 μM ATP
Method in brief: (§1)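 Compounds tested at 0.1 nM to 30 μM in reaction buffer; reaction stopped with 10 mM EDTA. Phosphorylated MBP detected with 1 nM Europium-labelled anti-phospho-Thr232 antibody by TR-FRET.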

CDK9 = biological target: T2, CDK9 (Homo sapiens, UniProt P50750); experiment: Kinase TR-FRET assay, CDK9; format: biochemical; settings: full-length human kinase, 10 μM ATP
T2 construct: full-length human kinases from Carna Biosciences; purchased Carna Biosciences 04-110
Method in brief: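 Full-length human CDK9 (0.9 ng/μl) incubated 100 min at room temperature with 10 μM ATP, 100 nM ULight-MBP peptide and compound (0.1 nM–30 μM) in 50 mM HEPES pH 7.4, 1 mM EGTA, 10 mM MgCl2, 2 mM DTT, 0.01% Tween20. Stopped with 10 mM EDTA, then 1 nM Eu-anti-phospho-Thr232 MBP antibody added for 1 h. TR-FRET read at 665/620 nm with 340 nm excitation.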

DYRK1B = biological target: T3, DYRK1B (Homo sapiens, UniProt Q9Y463); experiment: Kinase TR-FRET assay, DYRK1B; format: biochemical; settings: full-length human kinase, 10 μM ATP
T3 construct: full-length human kinases from Carna Biosciences; purchased Carna Biosciences 04-131
Method in brief: as §1

[2] = biological target: T4, His-TEV-DYRK1A Kinase domain (aa127-485) (Homo sapiens, UniProt Q13627); experiment: Kinase ADP assay (ADP Hunter), DYRK1A kinase domain; format: biochemical; settings: 20 μM ATP
T4 construct: His-TEV-DYRK1A Kinase domain (aa127-485); His tag (N); TEV protease cleavage site (N)
Method in brief: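 Readout is ADP Hunter fluorescence at 590 nm, developed 20 min at 30 °C after the kinase step. That step ran 10 min at 30 °C in Hepes pH 7.4 (10 mM MgCl2, 1 mM EGTA, 0.02% Tween20) containing 20 μM ATP, 40 μM peptide and 20 nM enzyme plus compound.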

DYRK1A [3] = biological target: T1, DYRK1A; experiment: Cellular DYRK1 autophosphorylation assay in U2-OS cells; format: cell-based; parameters: full-length, wild-type human DYRK1A (NM_001396) with an HA tag; expressed in transfected cells; host or cells: human U2-OS osteosarcoma cells, transient transfection of a pcDNA3.1 plasmid; settings: U2-OS cells transfected with HA-tagged human DYRK1A, 5 hours exposure; read-out: IC50 (μM) P-Ser520-Dyrk1A -Cell assay
Method in brief: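 IC50 derived from dose-response curves of phospho-Ser520-DYRK1A (blots normalised to total DYRK1A), quantified by either immunoblotting with chemiluminescence or Mesoscale electrochemiluminescent ELISA. Compounds applied to U2-OS cells across several concentrations for 5 hours.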

CLK1 = biological target: T5, CLK1 (Homo sapiens, UniProt P49759); experiment: Kinase TR-FRET assay, CLK1; format: biochemical; settings: full-length human kinase, 10 μM ATP
T5 construct: full-length human kinases from Carna Biosciences; purchased Carna Biosciences 04-126
Method in brief: as §1

T5 sequence (P49759 1-526 isoform P49759-3): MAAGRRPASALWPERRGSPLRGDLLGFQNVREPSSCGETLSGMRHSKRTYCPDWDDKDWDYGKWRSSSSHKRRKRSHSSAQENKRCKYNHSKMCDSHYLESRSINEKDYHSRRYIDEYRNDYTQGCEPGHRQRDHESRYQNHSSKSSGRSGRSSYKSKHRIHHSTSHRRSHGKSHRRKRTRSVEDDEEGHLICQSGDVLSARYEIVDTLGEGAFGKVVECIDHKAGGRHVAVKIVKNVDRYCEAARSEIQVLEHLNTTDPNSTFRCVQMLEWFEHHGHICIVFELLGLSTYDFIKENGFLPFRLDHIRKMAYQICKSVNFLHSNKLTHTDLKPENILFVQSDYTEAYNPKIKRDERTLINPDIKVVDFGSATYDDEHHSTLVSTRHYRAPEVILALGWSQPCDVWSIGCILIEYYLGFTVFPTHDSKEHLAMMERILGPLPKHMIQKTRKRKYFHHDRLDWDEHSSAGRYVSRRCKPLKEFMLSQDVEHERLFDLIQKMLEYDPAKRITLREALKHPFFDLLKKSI
T2 sequence (P50750 whole entry): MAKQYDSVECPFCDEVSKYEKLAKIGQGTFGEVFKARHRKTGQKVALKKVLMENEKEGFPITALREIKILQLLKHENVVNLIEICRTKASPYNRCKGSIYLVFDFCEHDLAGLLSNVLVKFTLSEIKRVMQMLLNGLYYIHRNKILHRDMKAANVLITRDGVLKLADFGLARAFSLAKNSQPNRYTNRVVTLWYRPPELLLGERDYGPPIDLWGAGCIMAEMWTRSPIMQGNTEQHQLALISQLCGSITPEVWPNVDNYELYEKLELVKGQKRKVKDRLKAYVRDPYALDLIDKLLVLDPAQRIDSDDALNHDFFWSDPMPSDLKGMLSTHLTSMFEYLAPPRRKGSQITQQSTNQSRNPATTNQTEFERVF
T2 sequence (O60563 whole entry partner): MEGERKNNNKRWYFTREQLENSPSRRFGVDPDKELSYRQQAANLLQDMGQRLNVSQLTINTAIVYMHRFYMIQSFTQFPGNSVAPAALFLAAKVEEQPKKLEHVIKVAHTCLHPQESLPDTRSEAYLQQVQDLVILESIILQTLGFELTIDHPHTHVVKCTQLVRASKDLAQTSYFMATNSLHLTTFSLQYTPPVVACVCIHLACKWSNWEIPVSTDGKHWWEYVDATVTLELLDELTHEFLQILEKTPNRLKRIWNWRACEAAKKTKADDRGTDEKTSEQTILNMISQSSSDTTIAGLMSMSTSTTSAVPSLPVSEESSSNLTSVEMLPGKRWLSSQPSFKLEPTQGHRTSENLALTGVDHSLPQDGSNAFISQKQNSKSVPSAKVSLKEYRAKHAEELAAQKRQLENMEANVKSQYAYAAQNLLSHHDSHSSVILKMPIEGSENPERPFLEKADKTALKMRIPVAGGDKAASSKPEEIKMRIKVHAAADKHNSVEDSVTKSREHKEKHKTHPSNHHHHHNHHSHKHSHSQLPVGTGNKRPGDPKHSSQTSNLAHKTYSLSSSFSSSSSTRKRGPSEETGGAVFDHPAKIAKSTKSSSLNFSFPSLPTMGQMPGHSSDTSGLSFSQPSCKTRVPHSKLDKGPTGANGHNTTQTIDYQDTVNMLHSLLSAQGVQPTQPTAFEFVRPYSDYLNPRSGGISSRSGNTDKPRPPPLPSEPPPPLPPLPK
T3 sequence (Q9Y463 whole entry): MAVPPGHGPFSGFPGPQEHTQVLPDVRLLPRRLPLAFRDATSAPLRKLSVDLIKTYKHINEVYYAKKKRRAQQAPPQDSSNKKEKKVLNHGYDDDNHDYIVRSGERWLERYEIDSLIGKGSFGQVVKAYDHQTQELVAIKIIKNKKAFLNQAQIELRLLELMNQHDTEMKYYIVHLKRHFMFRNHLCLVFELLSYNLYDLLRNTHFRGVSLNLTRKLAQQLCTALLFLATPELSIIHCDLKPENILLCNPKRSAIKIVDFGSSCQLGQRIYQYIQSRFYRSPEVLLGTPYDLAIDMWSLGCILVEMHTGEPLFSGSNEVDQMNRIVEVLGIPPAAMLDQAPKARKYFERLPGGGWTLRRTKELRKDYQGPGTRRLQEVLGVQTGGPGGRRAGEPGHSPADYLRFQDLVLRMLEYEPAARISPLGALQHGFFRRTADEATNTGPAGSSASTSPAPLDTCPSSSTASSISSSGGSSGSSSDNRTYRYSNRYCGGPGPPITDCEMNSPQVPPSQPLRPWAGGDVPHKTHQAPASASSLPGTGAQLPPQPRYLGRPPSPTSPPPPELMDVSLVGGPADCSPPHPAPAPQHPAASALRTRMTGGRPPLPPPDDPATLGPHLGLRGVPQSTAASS

Structure (SMILES)	IC50 (DYRK1A [1]) [µM]	IC50 (CDK9) [µM]	IC50 (DYRK1B) [µM]	IC50 [2] [µM]	IC50 (DYRK1A [3]) [µM]	IC50 (CLK1) [µM]
COc1ccccc1OCCn1c(C)nc2ccc(-c3cc(N)nc(N)c3)nc21 [Example 206, 4-{3-[2-(2-methoxyphenoxy)ethyl]-2-methyl-3H-imidazo[4,5-b]pyridin-5-yl}pyridine-2,6-diamine]	0.005	> 3	0.007	0.017	0.094	0.028
Cc1nc2ccc(-c3cc(N)nc(N)c3)nc2n1CCOc1ccc2[nH]ccc2c1 [Example 210, 4-{3-[2-(1H-indol-5-yloxy)ethyl]-2-methyl-3H-imidazo[4,5-b]pyridin-5-yl}pyridine-2,6-diamine]	0.003	1.01	0.006	0.008	0.047	0.018
Cc1nc2ccc(-c3cc(N)nc(N)c3)nc2n1CCOc1c(F)cccc1F [Example 212, 4-{3-[2-(2,6-difluorophenoxy)ethyl]-2-methyl-3H-imidazo[4,5-b]pyridin-5-yl}pyridine-2,6-diamine]	0.003	> 10	0.04	0.007	0.083	0.017
Nc1cc(-c2ccc3nc(Cl)n(C4CCCC4)c3n2)cc(N)n1 [Example 220, 4-(2-chloro-3-cyclopentyl-3H-imidazo[4,5-b]pyridin-5-yl)pyridine-2,6-diamine]	0.003	0.724	0.013	0.011	0.075	0.019

Now from value to compound:

IC50 (DYRK1A [1]) [µM]	IC50 (CDK9) [µM]	IC50 (DYRK1B) [µM]	IC50 [2] [µM]	IC50 (DYRK1A [3]) [µM]	IC50 (CLK1) [µM]	Structure (SMILES)
0.027	0.317	0.012	0.008	0.043	0.016	N#Cc1nc2ccc(-c3cc(N)nc(N)c3)nc2n1C1CCCC1 [Example 221, 3-cyclopentyl-5-(2,6-diaminopyridin-4-yl)-3H-imidazo[4,5-b]pyridine-2-carbonitrile]
0.018	> 3	0.031	0.023	0.244	0.062	N#Cc1nc2ccc(-c3cc(N)nc(N)c3)nc2n1CCOc1ccccc1 [Example 222, 5-(2,6-diaminopyridin-4-yl)-3-(2-phenoxyethyl)-3H-imidazo[4,5-b]pyridine-2-carbonitrile]
0.005	0.713	0.01	0.013	0.148	0.023	N#Cc1nc2ccc(-c3cc(N)nc(N)c3)nc2n1CCCC(F)(F)F [Example 226, 5-(2,6-diaminopyridin-4-yl)-3-(4,4,4-trifluorobutyl)-3H-imidazo[4,5-b]pyridine-2-carbonitrile]
